# Measured values taken from ChEMBL document CHEMBL4177537, “Identification of a new class of potent Cdc7 inhibitors designed by putative pharmacophore model: Synthesis and biological evaluation of 2,3-dihydrothieno[3,2-d]pyrimidin-4(1H)-ones” (Bioorg Med Chem, 2017).
# Key:
# [1] = molecular target: Rho-associated protein kinase 1 (Homo sapiens, UniProt Q13464); assay: Inhibition of recombinant human N-terminal GST-tagged ROCK1 (1 to 477 residues) expressed in baculovirus expression system using biotin-STK substrate-2 as substrate preincubated for 5 mins followed by ATP addition after 2 hrs by TR-FRET assay
# [2] = molecular target: Cyclin-dependent kinase 2/cyclin E1 (Homo sapiens, UniProt P24941); assay: Inhibition of recombinant human Cdk2 (1 to 298 residues)/human N-terminal GST-tagged cyclinE (1 to 410 residues) expressed in baculovirus expression system using histone H1 as substrate after 90 mins in presence of ATP by kinase-glo assay
# [3] = molecular target: CDC7/DBF4 (Cell division cycle 7-related protein kinase/Activator of S phase kinase) (Homo sapiens, UniProt O00311); assay: Inhibition of recombinant human Cdc7 (1 to 574 residues)/human N-terminal GST-tagged DBF4 (1 to 674 residues) expressed in baculovirus expression system using His-tagged MCM2 as substrate preincubated for 10 mins followed by ATP addition by HTRF assay
# [4] = molecular target: Cell division cycle 7-related protein kinase (Homo sapiens, UniProt O00311); assay: Inhibition of Cdc7 in human HeLa cells assessed as reduction in MCM2 phosphorylation at ser40 residues after 7 hrs by Western blot analysis; type: cell-based
# COLO 205 = assay: Cytotoxicity against human COLO205 cells after 3 days by CellTiter-Glo luminescent cell viability assay; type: functional, cell-based; conditions: COLO 205, 72 h
# [5] = Solubility of the compound; type: physicochemical
SMILES,IC50 [1] [µM],IC50 [2] [µM],IC50 [3] [µM],IC50 [4] [µM],EC50 (COLO 205) [µM],solubility [5]
CC1(CC(F)(F)F)NC(=O)c2sc(-c3ccncc3)cc2N1 (stereo not given),0.031,1.2,0.0027,–,–,–
CCC1(C)NC(=O)c2sc(-c3ccncc3)cc2N1 (stereo not given),0.036,2,0.0075,–,–,–
Cc1n[nH]cc1-c1cc2c(s1)C(=O)N[C@]1(CC[C@@](O)(c3ccc(F)cc3)CC1)N2,0.13,> 10,0.17,–,–,–
Cc1c(-c2cn[nH]c2)sc2c1N(C)C(C)(C)NC2=O,0.044,0.026,0.014,–,–,–
CC1(C)Nc2cc(-c3ccncc3)sc2C(=O)N1Cc1ccccc1,0.0015,0.65,> 10,–,–,–
CN1c2c(sc(-c3cn[nH]c3)c2Br)C(=O)NC1(C)C,0.022,0.026,0.0095,–,–,–
CN1C(=O)c2sc(-c3ccncc3)cc2NC1(C)C,0.24,> 10,0.45,–,–,–
CC1(C)NC(=O)c2cc(-c3ccncc3)sc2N1,0.1,–,0.14,–,–,–
O=C1NC2(CCCCC2)Nc2cc(-c3ccncc3)sc21,0.053,2,0.003,–,–,–
CC(C)C1(C)NC(=O)c2sc(-c3ccncc3)cc2N1 (stereo not given),0.035,1.4,0.0082,–,–,–
Cc1n[nH]cc1-c1cc2c(s1)C(=O)N[C@]1(CC[C@@](O)(C3CCCCC3)CC1)N2,0.35,> 10,0.38,–,–,–
Cc1n[nH]cc1-c1cc2c(s1)C(=O)NC(C)(C)N2C,0.054,0.26,0.0029,–,–,–
Cc1n[nH]cc1-c1cc2c(s1)C(=O)N[C@]1(CC[C@](O)(C3CCCCC3)CC1)N2,2.9,2.2,0.002,> 1,6.2,Soluble
CN1c2cc(-c3cn[nH]c3)sc2C(=O)NC1(C)C,0.13,0.16,0.0084,–,–,–
CN1c2cc(-c3ccncc3)sc2C(=O)NC1(C)C,0.14,2.1,0.0099,–,–,–
NC(=O)c1sc(-c2ccncc2)cc1N,–,–,1.2,–,–,–
O=C1NC2(CCCC2)Nc2cc(-c3ccncc3)sc21,0.1,4.9,0.0082,–,–,–
O=c1[nH]c(=O)c2sc(-c3ccncc3)cc2[nH]1,–,–,0.69,–,–,–
Cc1n[nH]c(C)c1-c1cc2c(s1)C(=O)NC(C)(C)N2C,2.1,1.1,0.29,–,–,–
Cc1n[nH]cc1-c1cc2c(s1)C(=O)N[C@]1(CC[C@](O)(c3ccc(F)cc3)CC1)N2,0.82,0.96,0.0012,> 1,4.5,Soluble
Cc1n[nH]cc1-c1cc2c(s1)C(=O)NC(C)(CC(F)(F)F)N2C (stereo not given),0.022,0.42,0.001,0.21,0.33,Soluble
CCCC1(C)NC(=O)c2sc(-c3ccncc3)cc2N1 (stereo not given),0.033,2,0.0063,–,–,–
CC1(C)NC(=O)c2sc(-c3ccncc3)cc2N1,0.09,3.2,0.026,–,–,–
Cc1n[nH]cc1-c1cc2c(s1)C(=O)NC1(CCCCC1)N2,0.048,1.3,0.0015,0.29,0.47,Soluble
O=C1NC2(CCCCCC2)Nc2cc(-c3ccncc3)sc21,0.037,2.3,0.0036,–,–,–
CCc1n[nH]cc1-c1cc2c(s1)C(=O)NC(C)(C)N2C,0.35,0.36,0.013,–,–,–
